# Tested on: NCI-H196 complex spheroid growth, percent test/control
# Test: Anticancer human tumor NCI-H196 cell line growth inhibition [AhR];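 also: seven days of drug exposure starting three days after plating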;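 as to viability, T/C: 100% = DMSO vehicle control wells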
# Conditions: for IC50: curve of first compound; for viability, T/C: stronger effect = lower value
# In short: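 Spheroids combined tumor cells with HUVEC endothelial cells and human MSCs as stroma. AhR antagonists were paired with standard or investigational drugs, each dosed in half-log steps down from near clinical Cmax, or from 10 microM where Cmax was unknown.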
# [1] = second compound 0.1 µM, first compound 0.0316 µM
# [2] = second compound 0.1 µM, first compound 0.1 µM
# [3] = second compound 0.1 µM, first compound 0.316 µM
# [4] = second compound 0.1 µM, first compound 1 µM
# [5] = second compound 0.1 µM, first compound 3.16 µM
# [6] = second compound 0.1 µM, first compound 10 µM
# [7] = second compound 0.316 µM, first compound 0.0316 µM
# [8] = second compound 0.316 µM, first compound 0.1 µM
# [9] = second compound 0.316 µM, first compound 0.316 µM
# [10] = second compound 0.316 µM, first compound 1 µM
# [11] = second compound 0.316 µM, first compound 3.16 µM
# [12] = second compound 0.316 µM, first compound 10 µM
# [13] = second compound 1 µM, first compound 0.0316 µM
# [14] = second compound 1 µM, first compound 0.1 µM
# [15] = second compound 1 µM, first compound 0.316 µM
# [16] = second compound 1 µM, first compound 1 µM
# [17] = second compound 1 µM, first compound 3.16 µM
# [18] = second compound 1 µM, first compound 10 µM
# [19] = second compound 3.16 µM, first compound 0.0316 µM
# [20] = second compound 3.16 µM, first compound 0.1 µM
# [21] = second compound 3.16 µM, first compound 0.316 µM
# [22] = second compound 3.16 µM, first compound 1 µM
# [23] = second compound 3.16 µM, first compound 3.16 µM
# [24] = second compound 3.16 µM, first compound 10 µM
# [25] = second compound 10 µM, first compound 0.0316 µM
# [26] = second compound 10 µM, first compound 0.1 µM
# [27] = second compound 10 µM, first compound 0.316 µM
# [28] = second compound 10 µM, first compound 1 µM
# [29] = second compound 10 µM, first compound 3.16 µM
# [30] = second compound 10 µM, first compound 10 µM
compound,measurement,setting,value
CCc1c2c(nc3ccc(O)cc13)-c1cc3c(c(=O)n1C2)COC(=O)[C@]3(O)CC + Cc1ccccc1N=Nc1ccc(NC(=O)c2ccnn2C)c(C)c1,IC50,second compound 0.1 µM,> 0.3 µM
same,IC50,second compound 0.316 µM,> 0.3 µM
same,IC50,second compound 1 µM,> 0.3 µM
same,IC50,second compound 3.16 µM,> 0.3 µM
same,IC50,second compound 10 µM,> 0.3 µM
same,"viability, T/C","second compound 0.1 µM, first compound 0.000949 µM",97%
same,"viability, T/C","second compound 0.1 µM, first compound 0.003 µM",101%
same,"viability, T/C","second compound 0.1 µM, first compound 0.00949 µM",103%
same,"viability, T/C","second compound 0.1 µM, first compound 0.03 µM",95.3%
same,"viability, T/C","second compound 0.1 µM, first compound 0.0949 µM",93.3%
same,"viability, T/C","second compound 0.1 µM, first compound 0.3 µM",81.2%
same,"viability, T/C","second compound 0.316 µM, first compound 0.000949 µM",96.3%
same,"viability, T/C","second compound 0.316 µM, first compound 0.003 µM",103%
same,"viability, T/C","second compound 0.316 µM, first compound 0.00949 µM",106%
same,"viability, T/C","second compound 0.316 µM, first compound 0.03 µM",89.7%
same,"viability, T/C","second compound 0.316 µM, first compound 0.0949 µM",89.2%
same,"viability, T/C","second compound 0.316 µM, first compound 0.3 µM",85.2%
same,"viability, T/C","second compound 1 µM, first compound 0.000949 µM",89.8%
same,"viability, T/C","second compound 1 µM, first compound 0.003 µM",106%
same,"viability, T/C","second compound 1 µM, first compound 0.00949 µM",93.8%
same,"viability, T/C","second compound 1 µM, first compound 0.03 µM",100%
same,"viability, T/C","second compound 1 µM, first compound 0.0949 µM",99.2%
same,"viability, T/C","second compound 1 µM, first compound 0.3 µM",70.7%
same,"viability, T/C","second compound 3.16 µM, first compound 0.000949 µM",89.4%
same,"viability, T/C","second compound 3.16 µM, first compound 0.003 µM",91.3%
same,"viability, T/C","second compound 3.16 µM, first compound 0.00949 µM",103%
same,"viability, T/C","second compound 3.16 µM, first compound 0.03 µM",88.9%
same,"viability, T/C","second compound 3.16 µM, first compound 0.0949 µM",82.7%
same,"viability, T/C","second compound 3.16 µM, first compound 0.3 µM",74.3%
same,"viability, T/C","second compound 10 µM, first compound 0.000949 µM",89%
same,"viability, T/C","second compound 10 µM, first compound 0.003 µM",108%
same,"viability, T/C","second compound 10 µM, first compound 0.00949 µM",93.3%
same,"viability, T/C","second compound 10 µM, first compound 0.03 µM",94.9%
same,"viability, T/C","second compound 10 µM, first compound 0.0949 µM",96%
same,"viability, T/C","second compound 10 µM, first compound 0.3 µM",76.1%
Nc1ccccc1NC(=O)c1ccc(CNC(=O)OCc2cccnc2)cc1 + Cc1ccccc1N=Nc1ccc(NC(=O)c2ccnn2C)c(C)c1,IC50,second compound 0.1 µM,0.787 µM
same,IC50,second compound 0.316 µM,0.856 µM
same,IC50,second compound 1 µM,0.992 µM
same,IC50,second compound 3.16 µM,0.765 µM
same,IC50,second compound 10 µM,1.2 µM
same,"viability, T/C",[1],88%
same,"viability, T/C",[2],78.3%
same,"viability, T/C",[3],71.9%
same,"viability, T/C",[4],44.8%
same,"viability, T/C",[5],15%
same,"viability, T/C",[6],0.96%
same,"viability, T/C",[7],85%
same,"viability, T/C",[8],83.9%
same,"viability, T/C",[9],73.3%
same,"viability, T/C",[10],44.9%
same,"viability, T/C",[11],18.5%
same,"viability, T/C",[12],1%
same,"viability, T/C",[13],85.8%
same,"viability, T/C",[14],89.8%
same,"viability, T/C",[15],74.9%
same,"viability, T/C",[16],48.6%
same,"viability, T/C",[17],20.7%
same,"viability, T/C",[18],1.92%
same,"viability, T/C",[19],91.9%
same,"viability, T/C",[20],80.8%
same,"viability, T/C",[21],70.5%
same,"viability, T/C",[22],44%
same,"viability, T/C",[23],18.5%
same,"viability, T/C",[24],1.99%
same,"viability, T/C",[25],88.8%
same,"viability, T/C",[26],94.7%
same,"viability, T/C",[27],72.7%
same,"viability, T/C",[28],55.2%
same,"viability, T/C",[29],26.5%
same,"viability, T/C",[30],3.32%
Nc1ccn(C2OC(CO)C(O)C2(F)F)c(=O)n1 (stereo not given) + Cc1ccccc1N=Nc1ccc(NC(=O)c2ccnn2C)c(C)c1,IC50,second compound 0.1 µM,> 10 µM
same,IC50,second compound 0.316 µM,> 10 µM
same,IC50,second compound 1 µM,> 10 µM
same,IC50,second compound 3.16 µM,> 10 µM
same,IC50,second compound 10 µM,> 10 µM
same,"viability, T/C",[1],88.8%
same,"viability, T/C",[2],85.5%
same,"viability, T/C",[3],53.4%
same,"viability, T/C",[4],52.1%
same,"viability, T/C",[5],57.6%
same,"viability, T/C",[6],59.6%
same,"viability, T/C",[7],91.4%
same,"viability, T/C",[8],88.2%
same,"viability, T/C",[9],58.7%
same,"viability, T/C",[10],54%
same,"viability, T/C",[11],54.5%
same,"viability, T/C",[12],60.1%
same,"viability, T/C",[13],88.7%
same,"viability, T/C",[14],90.4%
same,"viability, T/C",[15],62.5%
same,"viability, T/C",[16],53.2%
same,"viability, T/C",[17],56.1%
same,"viability, T/C",[18],60.2%
same,"viability, T/C",[19],93.3%
same,"viability, T/C",[20],91.3%
same,"viability, T/C",[21],62.7%
same,"viability, T/C",[22],57.1%
same,"viability, T/C",[23],55%
same,"viability, T/C",[24],55.9%
same,"viability, T/C",[25],85.2%
same,"viability, T/C",[26],90.8%
same,"viability, T/C",[27],75.9%
same,"viability, T/C",[28],61.9%
same,"viability, T/C",[29],60.1%
same,"viability, T/C",[30],64.3%
O=C(c1cc(Cc2n[nH]c(=O)c3ccccc23)ccc1F)N1CCN(C(=O)C2CC2)CC1 + Cc1ccccc1N=Nc1ccc(NC(=O)c2ccnn2C)c(C)c1,IC50,second compound 0.1 µM,> 10 µM
same,IC50,second compound 0.316 µM,> 10 µM
same,IC50,second compound 1 µM,> 10 µM
same,IC50,second compound 3.16 µM,> 10 µM
same,IC50,second compound 10 µM,> 10 µM
same,"viability, T/C",[1],109%
same,"viability, T/C",[2],101%
same,"viability, T/C",[3],107%
same,"viability, T/C",[4],94.1%
same,"viability, T/C",[5],91.4%
same,"viability, T/C",[6],102%
same,"viability, T/C",[7],99.5%
same,"viability, T/C",[8],103%
same,"viability, T/C",[9],102%
same,"viability, T/C",[10],93.1%
same,"viability, T/C",[11],108%
same,"viability, T/C",[12],102%
same,"viability, T/C",[13],99.4%
same,"viability, T/C",[14],107%
same,"viability, T/C",[15],98.3%
same,"viability, T/C",[16],99.1%
same,"viability, T/C",[17],100%
same,"viability, T/C",[18],93.6%
same,"viability, T/C",[19],90.8%
same,"viability, T/C",[20],105%
same,"viability, T/C",[21],95.9%
same,"viability, T/C",[22],108%
same,"viability, T/C",[23],96.9%
same,"viability, T/C",[24],101%
same,"viability, T/C",[25],87.2%
same,"viability, T/C",[26],90.1%
same,"viability, T/C",[27],99.1%
same,"viability, T/C",[28],98.8%
same,"viability, T/C",[29],103%
same,"viability, T/C",[30],83.4%

# Source: PubChem BioAssay AID1919016 (Molecular Pharmacology Branch, DTP, NCI, 2023)
